This is an account of results in patent US10093706B2, “Dominant positive hnRNP-E1 polypeptide compositions and methods” (Indiana University Research and Technology Corporation, priority 2017, dated 2018).

Like-named read-outs stand apart in the source and are kept apart here.

In assay [1] the test system is hnRNP-E1 mRNA. In words: In vitro translation of hnRNP-E1. Format: biochemical, human. The method, then:
(§1) In vitro transcription-translation was carried out using the Linked SP6/T7 In Vitro Transcription/Translation Kit (Roche Applied Science) after addition of one of various targeted DNAs—pSPT18-25-hnRNP-E1 DNA, or Pst1-linearized plasmid pSPT18-folate receptor-α, or HPV16 L2 DNA, (0.5 μg/reaction)—to the transcription mix as described. In other experiments, the capacity for perturbing the interaction of hnRNP-E1 with the 25-nt hnRNP-E1 cis-element during in vitro translation was assessed in the presence of either scrambled oligonucleotides (5′-[…]-3′ SEQ ID NO:20) or specific antisense oligonucleotides (5′-[…]-3′ SEQ ID NO:21) generated against the 25-nt hnRNP-E1 mRNA cis-element (GenScript USA, Piscataway, N.J.).

In assay [2] the test system is 25-nt hnRNP-E1 cis-element-driven CAT reporter. In words: 25-nt hnRNP-E1 cis-element-driven CAT reporter in placental 1584-HF cells. To be noted: 50-μM L-homocysteine for 3-h at 37° C. In kind it is cell-based, human. From the text: To prepare pCAT-25 or pCAT-25-Mutant two pairs of oligonucleotides, one for pCAT-25, (5′-tagcaggtac AAGCTTCTCCCGCCCGCTCCCGCTCGCTCCCCATGG tgtaactagct-3′SEQ ID NO:22; 5′-agctagttaca CCATGGGGAGCGAGCGGGAGCGGGCGGGAGAAGCTT gtacctgcta-3′ SEQ ID NO:23), and one for pCAT-25-Mutant#6, (5′-tagcaggtac AAGCTTCTTCCGCCCGCTCCCGCTCGCTTCCCATGG tgtaactagct-3′ SEQ ID NO:24; 5′-agctagttaca CCATGGGGAGCGAGCGGGAGCGGGCGGGAGAAGCTT gtacctgcta-3′SEQ ID NO:25) were first linearized with HindIII and NcoI and subcloned into pCAT3 Control DNA digested with HindIII and NcoI.

The target of assay [3] is T1, 25-nt hnRNP-E1 mRNA cis-element-bound hnRNP-E1 protein complexes (Homo sapiens, UniProt Q15365).
T1 construct: endogenous in cells; host or cells: human placental 1584-HF / 1584-LF cells
T1 sequence (Q15365 whole entry, one chain of several): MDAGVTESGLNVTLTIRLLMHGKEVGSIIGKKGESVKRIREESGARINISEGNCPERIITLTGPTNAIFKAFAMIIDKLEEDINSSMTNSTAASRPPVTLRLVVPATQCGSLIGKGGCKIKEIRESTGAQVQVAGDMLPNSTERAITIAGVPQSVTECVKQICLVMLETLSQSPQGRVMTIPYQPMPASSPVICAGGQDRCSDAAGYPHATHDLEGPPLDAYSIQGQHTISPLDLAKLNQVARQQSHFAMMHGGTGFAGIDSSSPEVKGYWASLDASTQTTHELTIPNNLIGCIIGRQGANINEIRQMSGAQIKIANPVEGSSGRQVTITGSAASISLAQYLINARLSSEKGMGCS
In words: Slot-blot capture of intracellular RNA-protein complexes in placental 1584-HF cells. Format: cell-based. Conditions: increasing concentrations, 2-hour exposure. How it is done: Slot-blot hybridization was carried out under high stringency conditions to detect intracellular RNA-protein complexes (composed of endogenous hnRNP-E1 RNA cis-element-bound to cellular hnRNP-E1 proteins) in placental 1584 cells under experimental conditions that modulated the intracellular concentration of homocysteine. We employed similar principles used to capture folate receptor-α mRNA cis-element-bound hnRNP-E1 complexes in HeLa-IU1 cells. […] Following RNase treatment and proteolysis, equal aliquots of the released small mRNA cis-element fragments were probed for evidence of enrichment of hnRNP-E1 mRNA cis-element in experimental cells using a specific [^35S]labeled antisense hnRNP-E1 mRNA cis-element probe.

Assay [4] addresses T2, RNA-protein complexes of GST-hnRNP-E1 and 25-nt hnRNP-E1 mRNA cis-element (Homo sapiens, UniProt Q15365, A205V).
T2 construct: made in house; host or cells: Escherichia coli BL21
As to the kind of experiment: Gel-shift assay: effect of thiols, iron and deferoxamine on RNA-protein complex formation. Format: binding.

Assay [5] concerns the target hnRNP-E1 binding to folate receptor mRNA and hnRNP-E1 mRNA cis-element (Homo sapiens, UniProt Q15365). To be noted: physiologically relevant thiols; cited from earlier work.
Assay [6] deals with T3, RNA-protein interaction of 25-nt hnRNP-E1 mRNA cis-element and GST-hnRNP-E1 (Homo sapiens, UniProt Q15365, A205V).
T3 construct: made in house; host or cells: Escherichia coli BL21
T3 sequence (Q15365 whole entry A205V): as the sequence (Q15365 whole entry, one chain of several) above, with A205V counted along it
As to the kind of experiment: Influence of thiols or iron(II) on the KD of the RNA-protein interaction. To be noted: L-homocysteine present. Format: binding. The method, then:
(§2) Specific binding was determined by subtracting values of non-specific binding with GST from those of total binding with GST-hnRNP-E1; (however, in Table 1 and FIG. 6G, non-specific binding using bovine serum albumin (BSA) was subtracted from total binding to GST-hnRNP-E1 to determine specific binding). The KD was calculated from a Scatchard plot using GraphPad Prism 6 from GraphPad Software (San Diego, Calif.), as previously described in the art.

The target of assay [7] is T2, RNA-protein complexes of GST-hnRNP-E1 and 25-nt hnRNP-E1 mRNA cis-element. In words: Gel-shift assay: effect of thiols, iron and deferoxamine on RNA-protein complex formation. In kind it is binding. Conditions: fixed L-homocysteine. The method, then:
Other studies assessed the effect of iron(II) or iron(III) on homocysteine-induced RNA-protein interactions.
Studies were conducted to evaluate the effect of iron(II) (as ferrous sulfate heptahydrate) or iron(III) (as ferric chloride hexahydrate) in modulating RNA-protein interactions during gel-shift assays in either the absence or presence of 10-mM glutathione. The iron preparation, either alone or with 50-μM of deferoxamine (DFO) to define the specificity of iron(II), was incubated first with glutathione and hnRNP-E1 before addition of other components of the reaction mixture. […] The samples were analyzed by PAGE and autoradiography overnight followed by densitometric analysis of the signals representing RNA-protein complexes.

The target of assay [8] is [^35S]25-nt hnRNP-E1 mRNA cis-element. In words: Dissociation constant (KD) of GST-hnRNP-E1 or its mutant proteins for the 25-nt hnRNP-E1 mRNA cis-element. In kind it is binding, human. How it is done:
(§3) Methods for testing the ability of an engineered hnRNP-E1 variant polypeptide to bind to an RNA comprising the sequence of SEQ ID NO:6 are known in the art. Such methods include, but are not limited to, RNA electrophoretic mobility shift assays, as exemplified herein, RNA pull-down assays, and oligonucleotide-targeted RNase H protection assays. Such assays are conducted in the presence or absence of homocysteine to determine the RNA-binding dependence of any particular hnRNP-E1 polypeptide tested on the presence of homocysteine. […] Additional methods are outline in Tang et al. (“Incrimination of heterogeneous nuclear ribonucleoprotein E1 (hnRNP-E1) as a candidate sensor of physiological folate deficiency.” J Biol Chem. 2011; 286(45):39100-39115), which is incorporated herein in its entirety.
as §2

Assay [9] has as its target [^35S]18-nt folate receptor-α mRNA cis-element. In words: Dissociation constant (KD) of GST-hnRNP-E1 or its mutant proteins for the 18-nt folate receptor-α mRNA cis-element. In kind it is binding, human. How it is done: as §3, §2
In assay [10] the test system is 25-nt hnRNP-E1 mRNA cis-element. As to the kind of experiment: Gel-shift assay of hnRNP-E1 proteins with 25-nt hnRNP-E1 mRNA cis-element. Format: binding, human. To be noted: absence of L-homocysteine. The method, then: Parenthetically, there was no significant difference in RNA binding to GST-hnRNP-E1 by use of either 32P-RNA probes or 35S-labeled RNA probes used. Other studies assessed the effect of iron(II) or iron(III) on homocysteine-induced RNA-protein interactions.
Recombinant GST-plasmid DNA, pGST-hnRNP-E1, pGST-hnRNP-E2, and related engineered variant plasmids were transformed into BL21 Escherichia coli from Novagen (Madison, Wis.). After induction by 1 mM isopropyl-1-thio-ß-D-galactopyranoside, the GST-hnRNP-E1 and engineered variant fusion proteins were individually purified using the B-PER GST Fusion Protein Purification Kit (Pierce, Rockford, Ill.). The eluted GST fusion proteins were dialyzed against 500 volumes of buffer to remove excess reducing reagents (such as dithiothreitol (DTT)) and assayed by SDS-PAGE and Western blots using anti-peptide hnRNP-E1 antiserum. Gel shift assays with target RNA were carried out as described.

For assay [11], the system named is HPV16 L2 RNA. In words: In vitro translation of HPV16 L2 protein. Format: biochemical, Human Papillomavirus type 16. The method, then: as §1
Construction of plasmids for generation of HPV16 L2 RNA, gel-shift and in vitro translation studies were carried as described with additional treatments shown in FIGS. 10A-10D

In assay [12] the test system is newly synthesized [^35S]hnRNP-E1 in placental 1584-HF cells. As to the kind of experiment: Biosynthetic rate of hnRNP-E1 after protein transfection into placental 1584-HF cells. Format: cell-based, human. To be noted: protein transfected in placental 1584-HF cells. From the text:
(§4) Transfection of purified recombinant wild-type or various mutant hnRNP-E1 proteins into cells was achieved using the Xfect™ Protein Transfection Kit (Clontech, Mountain View, Calif.). Briefly, placental 1584-HF cells in 10-cm dishes at 70-80% confluence were transfected with 2.4-mL serum-free medium and Xfect Protein Transfection Reagent (1.2-mL) containing 20-μg of either wild-type hnRNP-E1-, or highest-affinity (HA)-hnRNP-E1(C293S)-mutant, or wild-type-like hnRNP-E1 (G292A)-mutant proteins and 2-μg of ß-galactosidase at 37° C. for 60-min. After cysteine-starvation for 4-h, an aliquot of cells were assessed for ß-galactosidase activity (to measure the efficiency of co-transfection of ß-galactosidase) and the remaining cells were pulsed with L-[^35S]cysteine (250-μCi) and assessed for specific [^35S]cysteine incorporated into folate receptor to determine the biosynthetic rate of this protein. A similar protocol was employed for analysis of newly synthesized [^35S]hnRNP-E1 using anti-hnRNP-E1 antiserum-coupled agarose and control agarose in order to derive values for specific [^35S]cysteine incorporated into hnRNP-E1 and thereby determine the biosynthetic rate of this protein.

Assay [13] concerns newly synthesized [^35S]folate receptors in placental 1584-HF cells. In words: Biosynthetic rate of folate receptors after protein transfection into placental 1584-HF cells. Format: cell-based, human. To be noted: protein transfected in placental 1584-HF cells.
Excerpt: as §4

For assay [14], the target named is [^35S]18-nt folate receptor-α mRNA cis-element. Conditions: earlier studies, cited from earlier work.

T2 sequence (Q15365 whole entry A205V, one chain of several): as the sequence (Q15365 whole entry, one chain of several) above, with A205V counted along it
Chain of hnRNP-E1 binding to folate receptor mRNA and hnRNP-E1 mRNA cis-element (Q15365 whole entry): as the sequence (Q15365 whole entry, one chain of several) above

Take `N[C@@H](CCS)C(=O)O` [L-Homocysteine, L-homocysteine]: in assay [1] (N-ethylmaleimide maintained in the reaction mixture, physiological concentrations), the “translation of hnRNP-E1” value was “progressively increased translation of hnRNP-E1”. In addition, in [2], the CAT activity result is “further significant increase in CAT activity over baseline”. In addition, the “slot-blot hybridization signal of captured RNA-protein complexes” value in assay [3] is “progressive dose-dependent increase in signal”. The RNA-protein complex formation entry in assay [4] (10-mM glutathione in reaction mixture, from 5-μM) is recorded as “dose-dependent increase in RNA-protein complex formation”. Besides, the “concentration at which RNA-protein interaction can occur” value in [4] (in vitro assays using purified components) was no less than 2.5 µM. Further, the RNA-protein signal result in [4] (increasing physiologically relevant concentrations) is listed as “dose-dependent increase of RNA-protein signal”. For the same compound, in assay [5], the “hnRNP-E1 activation and mRNA-binding” value is recorded as “optimal”.
For `O.O.O.O.O.O.O.O=S(=O)([O-])[O-].[Fe+2]` [iron(II), ferrous sulfate heptahydrate], the “RNA-protein binding affinity (KD)” value in [6] was “dose-dependent reduction in RNA-protein binding affinity”. Further, the “effect on RNA-complex formation” value in assay [7] (10-mM glutathione) is on record as “comparable dose-dependent reduction in RNA-complex formation”. Further, the “effect on formation of RNA-protein complexes” value in [7] (no glutathione) is recorded as “dose-dependent inhibitory effect”. Moreover, in assay [1] (agent added to translation mixture (4.1-mM ß-ME)), the “effect on in vitro translation of hnRNP-E1” value is “dose-dependent impact in quenching the in vitro translation of hnRNP-E1”.
The term Kd denotes a measure of binding affinity in units of concentration. As to “GST-hnRNP-E1: purified recombinant glutathione S-transferase fusion of wild-type human hnRNP-E1 (SEQ ID NO:1)”, the Kd amounted to 2.74 ± 0.52 nM in assay [8] (Iron(II) 0 μM, L-Homocysteine 25 μM); 3.72 ± 0.34 nM in assay [8] (Iron(II) 5 μM, L-Homocysteine 25 μM); 6.5 ± 0.83 nM in [8] (Iron(II) 25 μM, L-Homocysteine 25 μM); 1.93 nM in assay [8] (L-Homocysteine 0 μM); 1.14 nM in assay [8] (L-Homocysteine 10 μM); 0.62 nM in [8] (L-Homocysteine 50 μM). Further, the dissociation constant Kd was 1.47 nM in assay [9] (L-Homocysteine 0 μM); 0.89 ± 0.16 nM in [9] (L-Homocysteine 10 μM); 0.47 nM in [9] (L-Homocysteine 50 μM); 0.5 nM in assay [14] (L-homocysteine raised to levels of mild-to-moderate folate deficiency); 1.5 nM in assay [14] (baseline). Also, the RNA-protein gel-shift signal result in [10] is on record as “no RNA-protein gel-shift signals”. For the same compound, the “HPV16 L2 protein signal” value in assay [11] (after quenching excess ß-ME by NEM (2 mM)) is listed as “insignificant reduction of HPV16 L2 protein signal”. Also, the “in vitro translation of HPV16 L2 protein” value in assay [11] (basal conditions, excess ß-ME not counteracted by NEM, dose-dependent addition) was “progressive reduction in the in vitro translation of HPV16 L2 protein”. Besides, the figures for the “[^35S]cysteine-hnRNP-E1” value in assay [12] and in assay [12] (listed as wild-type hnRNP-E1) were 1.12 ± 0.23 b fmol/mg protein/h and 1.12 fmol/mg protein/h, respectively. The figures for the “[^35S]cysteine-folate receptor” value in assay [13] and in assay [13] (listed as wild-type hnRNP-E1) were 1.62 ± 0.11 b fmol/mg protein/h and 1.62 fmol/mg protein/h, respectively.
